The text below walks through data of patent US20040006236A1, “Diaminopropionic acid derivatives” (priority 1999, published 2004).

Assay [1] has as its target T1, LFA-1 binding to immobilized ICAM-1 (Homo sapiens, UniProt P05107+P20701).
T1 construct: made in house; host or cells: transfected 293 cells (LFA-1)
As to the kind of experiment: LFA-1/ICAM-1 protein-protein assay (solid-phase ELISA). Here is the method: (a) LFA-1/ICAM-1 screening test: LFA-1/ICAM-1 antagonist activity, defined as the ability of compounds of the invention to block LFA-1 binding to immobilized ICAM-1, was quantitated using a solid-phase ELISA.
(§1) Typically, fusion protein consisting of the entire extracellular domain of human ICAM-1 and the Fc domain of human IgG (5dICAM-Ig) was coated onto 96-well microtiter plates (0.15 μg in 100 μL PBS) overnight at 4° C. The plates were then blocked with 150 μL of 1% BSA/1 mM MnCl2/0.14 M NaCl/20 mM HEPES, pH 7.2 for 1 h at 37° C. and washed 3 times (150 μL each) with Wash Buffer (50 mM Tris, pH 7.4/100 mM NaCl/1 mM MnCl2/0.05% Tween 20). Stock solutions (100 μM in 100% DMSO) of test compounds were diluted 50 fold with 150 μL of Binding Buffer (0.05% BSA/0.05% Tween 20/1 mM MnCl2/0.14 M NaCl/20 mM HEPES, pH 7.2) plus 10% DMSO. […] Fifty μL per well of each dilution was added to the ICAM-1 coated plates, followed by 50 μL per well of membrane-bound LFA-1 (280 ng/mL in Binding Buffer) derived from transfected 293 cells. The plates were shaken vigorously for 1 min (room temperature) and gently for 2 h (37° C.). After incubation, the plates were washed 3 times (150 μL each) with Wash Buffer. Mouse anti-human integrin β2 monoclonal antibody was added (100 μL/well, 1 μg/mL in Binding Buffer) and allowed to incubate for 1 h (37° C.) with gentle agitation. The plates were then washed 3 times with Wash Buffer. HRP-conjugated goat anti-mouse IgG (100 μL/well, 1:1500 dilution in Binding Buffer) was added to each well, followed by incubation for 1 h (37° C.), and concluded by three washes (150 μL each) with Wash Buffer. TMB solution (100 μL per well) was added for color development (10 min). The reaction was stopped by the addition of 100 μL of 1 M H3PO4 to each well. The plates were then read at 450 nm. The inhibitory activities of test compounds were determined by the IC50s.
as §1, with “LFA-1/ICAM-1 antagonist activity, defined as the ability to block LFA-1 binding to immobilized ICAM-1, was quantitated using a solid-phase ELISA. Typically,” for “Typically,”, “(0.05 %” for “(0.05%”, “nm.” for “nm. The inhibitory activities of test compounds were determined by the IC50s.”
On the technique in general: An ELISA detects its analyte on a solid surface through an enzyme-linked reagent.

For assay [2], the target named is T2, ICAM-1 binding to immobilized Mac-1 (Homo sapiens, UniProt P05107+P11215).
T2 construct: made in house; host or cells: transfected 293 cells (Mac-1)
T2 sequence (P05107 23-769, other chains not shown): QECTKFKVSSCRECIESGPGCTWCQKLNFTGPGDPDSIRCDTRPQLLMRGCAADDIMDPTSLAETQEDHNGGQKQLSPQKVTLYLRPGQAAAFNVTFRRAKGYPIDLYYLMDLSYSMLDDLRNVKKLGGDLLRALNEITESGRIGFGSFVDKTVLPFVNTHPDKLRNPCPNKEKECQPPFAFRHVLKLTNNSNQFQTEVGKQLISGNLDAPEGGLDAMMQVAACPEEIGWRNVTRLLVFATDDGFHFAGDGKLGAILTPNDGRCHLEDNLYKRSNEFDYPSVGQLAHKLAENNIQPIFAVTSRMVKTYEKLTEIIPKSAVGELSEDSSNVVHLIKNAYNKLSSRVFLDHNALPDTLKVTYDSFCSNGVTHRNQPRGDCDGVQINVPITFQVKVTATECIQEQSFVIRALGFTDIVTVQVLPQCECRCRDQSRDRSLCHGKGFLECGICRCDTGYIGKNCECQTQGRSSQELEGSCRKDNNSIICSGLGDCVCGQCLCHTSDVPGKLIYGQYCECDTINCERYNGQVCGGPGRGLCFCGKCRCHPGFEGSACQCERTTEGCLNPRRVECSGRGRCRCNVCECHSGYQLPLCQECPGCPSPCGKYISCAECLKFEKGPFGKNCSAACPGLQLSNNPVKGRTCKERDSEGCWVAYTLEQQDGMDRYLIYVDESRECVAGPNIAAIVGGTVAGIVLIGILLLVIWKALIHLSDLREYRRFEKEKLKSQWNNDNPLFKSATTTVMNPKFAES
The assay is described as follows: Mac-1/ICAM-1 screening assay (solid-phase ELISA). The method, then: (b) Mac-1/ICAM-1 screening test: Mac-1/ICAM-1 antagonist activity, defined as the ability to compete with ICAM-1 binding to immobilized Mac-1, was quantitated by a solid-phase ELISA.
(§2) Membrane-bound Mac-1 derived from transfected 293 cells was coated onto 96-well microtiter plates (50 μL/well, 3 μg/mL Mac-1 in 20 mM Hepes, pH 7.2/0.14 M NaCl/1 mM MnCl2) overnight at 4° C. The plates were blocked with 100 μL/well of 0.5% BSA in 20 mM Hepes, pH 7.2/0.14 M NaCl/1 mM MnCl2 at 37° C. for 1 h and washed 3 times (120 μL each) with Binding Buffer (20 mM Hepes, pH 7.2/0.14 M NaCl/1 mM MnCl2/0.05% Tween 20). Test compounds were dissolved in 100% DMSO and diluted 1:50 in Binding Buffer plus 10% DMSO. A series of 1:4 dilutions were performed for each compound (concentration range, 0.12 nM-20 μM). Each dilution (25 μL/well) was added to the plates, followed by 25 μL/well of 5 dICAM-Ig (40 μg/mL in Binding Buffer). The plates were shaken vigorously for 1 min (room temperature), followed by gentle agitation for 2 h (37° C.), and washed with Binding Buffer (3 times, 120 μL each). HRP-conjugated goat anti-human IgG(Fc-specific) antibody (0.125 μg/mL in Binding Buffer plus 0.05% BSA) was added to each well (50 μL/well), followed by incubation for 1 h at 37° C. The plates were then washed 3 times with Binding Buffer (120 μL each). TMB solution (100 μL/well) was added to each well for color development for 10 min. The reaction was stopped with 1 M H3PO4 (100 μL/well) and the plates were read at 450 nm. The inhibitory activities of test compounds were determined by the IC50s.
as §2, with “Mac-1/ICAM-1 antagonist activity, defined as the ability to compete with ICAM-1 binding to immobilized Mac-1, was quantitated by a solid-phase ELISA. Membrane-bound” for “Membrane-bound”, “5dICAM-Ig” for “5 dICAM-Ig”, “nm.” for “nm. The inhibitory activities of test compounds were determined by the IC50s.”

Where [3] appears, read: read-out: LFA-1/ICAM-1 Protein-Protein Assay IC50.
Where [4] appears, read: read-out: Mac-1/ICAM-1 Protein-Protein Assay IC50.

Molecules are shown by their SMILES. pIC50: −log10 of the molar value. Where two headings read alike, the source gives them in different places.

T1 sequence (P20701 26-1170): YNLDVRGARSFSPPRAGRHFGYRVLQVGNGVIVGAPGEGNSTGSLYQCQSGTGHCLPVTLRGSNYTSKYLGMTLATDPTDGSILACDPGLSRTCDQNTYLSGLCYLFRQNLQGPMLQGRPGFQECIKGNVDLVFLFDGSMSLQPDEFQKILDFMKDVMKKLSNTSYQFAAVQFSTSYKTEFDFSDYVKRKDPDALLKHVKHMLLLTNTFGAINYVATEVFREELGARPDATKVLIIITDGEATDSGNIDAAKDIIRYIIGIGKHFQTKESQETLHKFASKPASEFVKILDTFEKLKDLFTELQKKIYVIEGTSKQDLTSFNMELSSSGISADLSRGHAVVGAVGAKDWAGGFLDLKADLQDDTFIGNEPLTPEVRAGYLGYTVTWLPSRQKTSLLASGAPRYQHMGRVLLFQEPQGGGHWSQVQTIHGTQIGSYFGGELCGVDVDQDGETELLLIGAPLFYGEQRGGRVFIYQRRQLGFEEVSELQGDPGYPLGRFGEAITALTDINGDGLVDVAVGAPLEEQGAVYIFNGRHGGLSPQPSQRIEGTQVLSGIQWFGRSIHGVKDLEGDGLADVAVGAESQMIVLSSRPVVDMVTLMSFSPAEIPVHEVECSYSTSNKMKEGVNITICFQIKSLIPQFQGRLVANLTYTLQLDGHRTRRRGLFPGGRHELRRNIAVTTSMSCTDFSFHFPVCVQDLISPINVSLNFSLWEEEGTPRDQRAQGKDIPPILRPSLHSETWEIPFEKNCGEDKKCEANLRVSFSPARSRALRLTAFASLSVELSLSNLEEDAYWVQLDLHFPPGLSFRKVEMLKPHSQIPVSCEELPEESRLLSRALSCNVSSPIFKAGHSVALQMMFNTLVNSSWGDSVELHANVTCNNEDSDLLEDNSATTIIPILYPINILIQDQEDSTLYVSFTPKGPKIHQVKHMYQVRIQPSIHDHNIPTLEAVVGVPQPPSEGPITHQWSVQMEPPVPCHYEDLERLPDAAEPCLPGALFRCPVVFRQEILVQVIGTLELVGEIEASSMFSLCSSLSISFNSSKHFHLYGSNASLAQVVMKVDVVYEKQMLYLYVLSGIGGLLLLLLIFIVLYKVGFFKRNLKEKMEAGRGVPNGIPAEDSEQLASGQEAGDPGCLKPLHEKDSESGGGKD
T1 sequence (P05107 23-769): as the sequence (P05107 23-769, other chains not shown) above

Turning to `COc1cccc(C(=O)NC[C@H](NC(=O)c2ccc(C(=O)NCc3cccc(O)c3)cc2Cl)C(=O)O)c1` [Compound A, N-[2-chloro-4-[[[(3-hydroxyphenyl)methyl]amino]carbonyl]benzoyl]-3-(3-methoxybenzoyl)amino-L-alanine], the pIC50 was 8.92 in assay [1] (read-out: LFA-1/ICAM IC50) and 7.36 in assay [2] (read-out: Mac-1/ICAM IC50).

With `O=C(NCc1cccc(O)c1)c1ccc(C(=O)N[C@@H](CNC(=O)c2ccccc2)C(=O)O)c(Cl)c1` [Compound B, 3-benzoylamino-N-[2-chloro-4-[[[(3-hydroxyphenyl)methyl]amino]carbonyl]benzoyl]-L-alanine], the values for the pIC50 in assay [1] (read-out: LFA-1/ICAM IC50) and in assay [2] (read-out: Mac-1/ICAM IC50) were 9.05 and 7.51, respectively.

For the compound `O=C(NCc1cccc(O)c1)c1ccc(C(=O)N[C@@H](CNC(=O)c2cc([N+](=O)[O-])[nH]n2)C(=O)O)c(Cl)c1` [Compound C, N-[2-chloro-4-[[[(3-hydroxyphenyl)methyl]amino]carbonyl]benzoyl]-3-(5-nitropyrazole-3-carbonyl)amino-L-alanine], the pIC50 was 8.19 in assay [1] (read-out: LFA-1/ICAM IC50) and 6.99 in assay [2] (read-out: Mac-1/ICAM IC50).

For `O=C(NCc1cccc(O)c1)c1ccc(C(=O)N[C@@H](CNC(=O)c2cccs2)C(=O)O)c(Cl)c1` [Compound D, N-[2-chloro-4-[[[(3-hydroxyphenyl)methyl]amino]carbonyl]benzoyl]-3-(thiophene-2-carbonyl)amino-L-alanine], the pIC50 in assay [1] (read-out: LFA-1/ICAM IC50) was 9.30; in assay [2] (read-out: Mac-1/ICAM IC50) it was 8.19.

With `COc1cc(C(=O)NC[C@H](NC(=O)c2ccc(C(=O)NCc3cccc(O)c3)cc2Cl)C(=O)O)nc2ccccc12` [Compound E, N-[2-chloro-4-[[[(3-hydroxyphenyl)methyl]amino]carbonyl]benzoyl]-3-(4-methoxyquinoline-2-carbonyl)amino-L-alanine], the pIC50 in assay [1] (read-out: LFA-1/ICAM IC50) was 7.82; in assay [2] (read-out: Mac-1/ICAM IC50), 6.28.

In the case of `O=C(NC[C@H](NC(=O)c1c(Cl)cccc1Cl)C(=O)O)c1ccc(Br)s1` [Compound F, 3-(5-bromothiophene-2-carbonyl)amino-N-(2,6-dichlorobenzoyl)-L-alanine], the pIC50 was 8.19 in assay [1] (read-out: LFA-1/ICAM IC50) and 7.09 in assay [2] (read-out: Mac-1/ICAM IC50).

Regarding `O=C(NCc1cccc2[nH]ccc12)c1ccc(C(=O)N[C@@H](CNC(=O)c2cccs2)C(=O)O)c(Cl)c1` [Compound G, N-[2-chloro-4-[[(1H-indol-4-ylmethyl)amino]carbonyl]benzoyl]-3-(thiophene-2-carbonyl)amino-L-alanine], the pIC50 in assay [1] (read-out: LFA-1/ICAM IC50) was 8.89; in assay [2] (read-out: Mac-1/ICAM IC50) it was 7.65.

Regarding `O=C(CCc1cccc(O)c1)c1ccc(C(=O)N[C@@H](CNC(=O)c2cccs2)C(=O)O)c(Cl)c1` [Compound H, N-[2-chloro-4-[1-oxo-3-(3-hydroxyphenyl)propyl]benzoyl]-3-(thiophene-2-carbonyl)amino-L-alanine], the pIC50 in assay [1] (read-out: LFA-1/ICAM IC50) is 8.85; in assay [2] (read-out: Mac-1/ICAM IC50), 7.36.

`O=C(NC[C@H](NC(=O)c1ccc(-n2nnnc2NCc2cccc(O)c2)cc1Cl)C(=O)O)c1cccs1` [Compound I, N-[2-chloro-4-[5-[[(3-hydroxyphenyl)methyl]amino]tetrazol-1-yl]benzoyl]-3-(thiophene-2-carbonyl)amino-L-alanine]: the pIC50 in assay [1] (read-out: LFA-1/ICAM IC50) was 8.59; in assay [2] (read-out: Mac-1/ICAM IC50), 7.12.

As for `O=C(NCc1cccc2[nH]ccc12)c1ccc(C(=O)N[C@@H](CNCc2ccccc2)C(=O)O)c(Cl)c1` [Compound J, 3-(phenylmethyl)amino-N-[2-chloro-4-[[(1H-indol-4-ylmethyl)amino]carbonyl]benzoyl]-L-alanine], the values for the pIC50 in assay [1] (read-out: LFA-1/ICAM IC50) and in assay [2] (read-out: Mac-1/ICAM IC50) were 7.92 and 5.85, respectively.

For the compound `O=C(NCc1cccc(O)c1)c1ccc(C(=O)N[C@@H](CNC(=O)c2ccccn2)C(=O)O)c(Cl)c1` [Example 162], the pIC50 in assay [1] (setting [3]) was 9.00; in assay [2] (setting [4]) it was 6.98.

`O=C(NCc1cccc(O)c1)c1ccc(C(=O)N[C@@H](CNC(=O)c2cccnc2Cl)C(=O)O)c(Cl)c1` [Example 166]: the pIC50 in assay [1] (setting [3]) is 8.52; in assay [2] (setting [4]), 7.17.

Regarding `O=C(NCc1cccc(O)c1)c1ccc(C(=O)N[C@@H](CNC(=O)c2ccc(Cl)nc2)C(=O)O)c(Cl)c1` [Example 167], the pIC50 was 8.66 in assay [1] (setting [3]) and 7.41 in assay [2] (setting [4]).
